Laboratory results published in patent US11441162B2, “Human gut microbiome-derived biosynthetic enzymes for production of fatty acid amides” (Massachusetts Institute of Technology, priority 2019, dated 2022).
Read-outs that look alike come from different tables or passages of the source.

What was measured:
GPR132 [1] = target: T1, GPR132 (Homo sapiens, UniProt Q9UNW8); settings: previously reported human microbiome-derived FAA GPCR modulator; read-out: GPR132 agonist at (previously reported); cited from earlier work
T1 sequence (Q9UNW8 1-380): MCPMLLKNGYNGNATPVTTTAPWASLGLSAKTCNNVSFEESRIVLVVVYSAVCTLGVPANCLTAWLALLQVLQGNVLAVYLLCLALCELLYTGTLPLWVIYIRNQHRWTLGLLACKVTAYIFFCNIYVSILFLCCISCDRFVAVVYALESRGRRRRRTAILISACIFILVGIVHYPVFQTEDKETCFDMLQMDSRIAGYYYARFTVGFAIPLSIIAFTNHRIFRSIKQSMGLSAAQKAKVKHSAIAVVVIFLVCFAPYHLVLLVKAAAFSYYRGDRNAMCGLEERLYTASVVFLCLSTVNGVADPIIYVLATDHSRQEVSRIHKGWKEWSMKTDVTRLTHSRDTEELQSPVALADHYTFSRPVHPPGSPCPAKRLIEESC

[2] = system: C protein of the L. clostridioforme, B. producta, C. celatum, C. sp pathways; assay: Substrate panel assay, condensation activity on amine panel; assay type: biochemical, Clostridia; settings: highest amine substrate of the panel for these four pathways; α-linolenic acid as fatty acid
Protocol: The human gut lumen consists of various fatty acid and amine substrates from different sources that the pathway can incorporate for FAA production. To characterize the preferred product, an in vitro substrate panel assay was set up to investigate substrate selectivity of the biosynthetic enzymes for each of the eight identified HMP-derived pathways (FIG. 2A). A and C enzyme activity was measured for defined fatty acid and amines, respectively, to determine the substrates that each pathway prefers to incorporate for FAA production (FIG. 2B-2C). A panel of 25 fatty acids and 53 biogenic amines derived from Clostridia, human cells, and human diet that are known to be abundant in the human gut was selected (FIG. 2D).^43,44,45,46,47 For consistency, FAA product level, instead of PPi level, was used as the metric of A activity for the panel assay by adding tryptamine for all query fatty acid substrates to measure the level of C-independent FAA formation based on the UV absorbance of the indole chromophore (FIG. 2B). […]
For adenylation activity, adenylation and thiolation proteins (no condensation) were added with the query fatty acid substrate(s) and tryptamine as a UV-active chromophore. […] The reaction was mixed with equal volume of methanol, spun down at 21,000 g for 1 min, and analyzed with the same analytical LCMS run as described previously. […]

GPR132 [3] = target: T1, GPR132; assay: Cell-based β-arrestin reporter assay (DiscoverX), GPR132 agonist mode: orphan panel at 10 uM and concentration-response
Protocol: FIGS. 31A-31H show GPCR activity assay of lauroyl tryptamine. a, Cell-based β-arrestin reporter assay (DiscoveRx) with a panel of 168 GPCRs with known ligands in agonist mode and antagonist mode, and also 73 orphan GPCRs in agonist mode at 10 uM. Agonist mode measures % activity of target GPCR by the compound, relative to the baseline value (0% activity) and maximum value with a known ligand, or twofold increase over baseline for orphan GPCR (100% activation). Antagonist mode measures % inhibition of target GPCR by the compound in the presence of a known ligand, relative to the value at the EC80 (0% inhibition) and basal value (100% inhibition). […] EBI2 antagonist activity (δ1%) is marked with an asterisk (*). b, Concentration-dose response curves of the inhibitory activity of lauroyl tryptamine, tryptamine, and lauric acid on EBI2 in the presence of the native agonist 7α,25-dihydroxycholesterol (7a,25-diHC) at 0.232 uM (EC80). […] IC50>100 uM for all three compounds. d, Concentration-dose response curves of the stimulatory activity of lauroyl tryptamine, tryptamine, and lauric acid on GPR132. […] For b, c, d, the curves span ten concentration points in duplicates from 100 to 0.0051 uM, with the error bar being the s.d. from duplicates. e, MS chromatogram (EIC ESI+[M+H]^+ m/z of lauroyl tryptamine, theoretical=343.2744, experimental=[…]) of the in vivo extract of E. rectale in RCM media (with no fed substrates). […] The production titer was determined to be 0.04 mg/L. f, Product titer of fatty acyl tryptamine from the in vivo extract of E. rectale in RCM, when fed with exogenous fatty acid (lauric acid, linoleic acid, oleic acid, docosahexaenoic acid, or α-linolenic acid). g, Mapping of human gut metatranscriptomic reads from subject subX316701492 (accession: SRX247340) onto a 80 kb region of the E. rectale genome centered on the FAA pathway (darker arrows, labeled “FAA”). […]
(§1) FAAs are known to modulate diverse biological functions by interacting with human GPCRs. […] The FAAs were analyzed for activity against a panel of known and orphan human GPCRs using the DiscoverX platform. […]

EBI2/GPR183 = EBI2/GPR183 (Homo sapiens, UniProt P32249); assay: Cell-based β-arrestin reporter assay (DiscoverX), EBI2 antagonist mode: panel at 10 uM and concentration-response; settings: for inhibition on EBI2 (concentration-response, in words): antagonist mode against 7α,25-diHC; for IC50: in the presence of native agonist 7α,25-dihydroxycholesterol at 0.232 uM (EC80), ten concentrations 100 to 0.0051 uM, read-out: IC50, inhibitory activity on EBI2
Sequence of EBI2/GPR183 (P32249 whole entry): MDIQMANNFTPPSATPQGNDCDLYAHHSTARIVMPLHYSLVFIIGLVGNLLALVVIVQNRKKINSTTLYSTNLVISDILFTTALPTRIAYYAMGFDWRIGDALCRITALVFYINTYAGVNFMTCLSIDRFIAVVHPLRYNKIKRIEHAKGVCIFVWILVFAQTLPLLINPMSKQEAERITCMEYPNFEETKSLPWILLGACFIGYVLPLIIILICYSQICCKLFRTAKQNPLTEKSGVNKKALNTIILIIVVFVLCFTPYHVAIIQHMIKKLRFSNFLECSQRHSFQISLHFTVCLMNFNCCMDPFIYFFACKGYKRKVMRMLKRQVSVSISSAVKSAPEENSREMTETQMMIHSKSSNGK
Protocol: FIGS. 31A-31H show GPCR activity assay of lauroyl tryptamine. a, Cell-based β-arrestin reporter assay (DiscoveRx) with a panel of 168 GPCRs with known ligands in agonist mode and antagonist mode, and also 73 orphan GPCRs in agonist mode at 10 uM. Agonist mode measures % activity of target GPCR by the compound, relative to the baseline value (0% activity) and maximum value with a known ligand, or twofold increase over baseline for orphan GPCR (100% activation). Antagonist mode measures % inhibition of target GPCR by the compound in the presence of a known ligand, relative to the value at the EC80 (0% inhibition) and basal value (100% inhibition). […] EBI2 antagonist activity (δ1%) is marked with an asterisk (*). b, Concentration-dose response curves of the inhibitory activity of lauroyl tryptamine, tryptamine, and lauric acid on EBI2 in the presence of the native agonist 7α,25-dihydroxycholesterol (7a,25-diHC) at 0.232 uM (EC80). […] IC50>100 uM for all three compounds. d, Concentration-dose response curves of the stimulatory activity of lauroyl tryptamine, tryptamine, and lauric acid on GPR132. […] For b, c, d, the curves span ten concentration points in duplicates from 100 to 0.0051 uM, with the error bar being the s.d. from duplicates. e, MS chromatogram (EIC ESI+[M+H]^+ m/z of lauroyl tryptamine, theoretical=343.2744, experimental=[…]) of the in vivo extract of E. rectale in RCM media (with no fed substrates). The samples are injected alongside a chemically synthesized and structurally verified standard. The * denotes lauroyl tryptamine. The production titer was determined to be 0.04 mg/L. f, Product titer of fatty acyl tryptamine from the in vivo extract of E. rectale in RCM, when fed with exogenous fatty acid (lauric acid, linoleic acid, oleic acid, docosahexaenoic acid, or α-linolenic acid). g, Mapping of human gut metatranscriptomic reads from subject subX316701492 (accession: SRX247340) onto a 80 kb region of the E. rectale genome centered on the FAA pathway (darker arrows, labeled “FAA”). The mean coverage of the 80 kb segment was 0.8 (SD=3.3), while the mean coverage of the FAA pathway by itself was 1.5 (SD=1.1). Housekeeping genes within this segment include tRNA synthetase (tR), carbohydrate metabolism (CM), and sugar transporter (ST) genes. h, Immunological and development role of the EBI2-oxysterol axis and its suppression by E. rectale-derived lauroyl tryptamine to possibly protect against IBD.
FAAs are known to modulate diverse biological functions by interacting with human GPCRs. The products of the FAA screen are either known GPCR ligands or appear to structurally mimic these molecules (FIG. 30). The FAAs were analyzed for activity against a panel of known and orphan human GPCRs using the DiscoverX platform. […]

P2RY4 = P2RY4 (Homo sapiens, UniProt P51582); assay: Cell-based β-arrestin reporter assay (DiscoverX), P2RY4 antagonist mode: panel at 10 uM and concentration-response; settings: in the presence of native agonist UTP at 2.79 uM (EC80); ten concentrations 100 to 0.0051 uM; read-out: IC50, inhibitory activity on P2RY4
Sequence of P2RY4 (P51582 whole entry): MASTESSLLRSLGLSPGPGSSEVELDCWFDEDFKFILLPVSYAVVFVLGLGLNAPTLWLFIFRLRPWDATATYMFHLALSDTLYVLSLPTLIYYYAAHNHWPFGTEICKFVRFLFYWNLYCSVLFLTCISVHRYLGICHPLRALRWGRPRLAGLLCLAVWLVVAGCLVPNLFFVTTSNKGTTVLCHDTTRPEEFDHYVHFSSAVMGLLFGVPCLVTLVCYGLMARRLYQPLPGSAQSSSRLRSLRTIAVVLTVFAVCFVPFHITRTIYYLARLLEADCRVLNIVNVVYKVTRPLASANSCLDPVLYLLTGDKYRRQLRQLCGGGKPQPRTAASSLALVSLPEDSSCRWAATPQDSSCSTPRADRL
Protocol: FIGS. 31A-31H show GPCR activity assay of lauroyl tryptamine. a, Cell-based β-arrestin reporter assay (DiscoveRx) with a panel of 168 GPCRs with known ligands in agonist mode and antagonist mode, and also 73 orphan GPCRs in agonist mode at 10 uM. Agonist mode measures % activity of target GPCR by the compound, relative to the baseline value (0% activity) and maximum value with a known ligand, or twofold increase over baseline for orphan GPCR (100% activation). Antagonist mode measures % inhibition of target GPCR by the compound in the presence of a known ligand, relative to the value at the EC80 (0% inhibition) and basal value (100% inhibition). […] The production titer was determined to be 0.04 mg/L. f, Product titer of fatty acyl tryptamine from the in vivo extract of E. rectale in RCM, when fed with exogenous fatty acid (lauric acid, linoleic acid, oleic acid, docosahexaenoic acid, or α-linolenic acid). g, Mapping of human gut metatranscriptomic reads from subject subX316701492 (accession: SRX247340) onto a 80 kb region of the E. rectale genome centered on the FAA pathway (darker arrows, labeled “FAA”). […]
as §1

PRLHR = target: T2, PRLHR (Homo sapiens, UniProt P49683); assay: Cell-based β-arrestin reporter GPCR panel (DiscoverX) at 10 uM, PRLHR; settings: compound at 10 uM
T2 sequence (P49683 1-370): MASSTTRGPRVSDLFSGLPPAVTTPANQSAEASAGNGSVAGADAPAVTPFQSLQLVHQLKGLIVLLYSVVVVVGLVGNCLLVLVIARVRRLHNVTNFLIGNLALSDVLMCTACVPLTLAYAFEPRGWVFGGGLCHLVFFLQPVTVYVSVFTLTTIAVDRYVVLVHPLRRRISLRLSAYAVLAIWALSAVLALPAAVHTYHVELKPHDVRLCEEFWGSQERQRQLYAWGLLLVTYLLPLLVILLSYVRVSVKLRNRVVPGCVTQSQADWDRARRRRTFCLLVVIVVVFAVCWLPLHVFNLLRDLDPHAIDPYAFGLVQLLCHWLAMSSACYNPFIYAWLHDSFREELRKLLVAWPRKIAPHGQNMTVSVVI
Protocol: (§2) Cell-based β-arrestin reporter assay (DiscoveRx) with a panel of 168 GPCRs with known ligands in agonist mode and antagonist mode, and also 73 orphan GPCRs in agonist mode at 10 uM. Agonist mode measures % activity of target GPCR by the compound, relative to the baseline value (0% activity) and maximum value with a known ligand, or twofold increase over baseline for orphan GPCR (100% activation). Antagonist mode measures % inhibition of target GPCR by the compound in the presence of a known ligand, relative to the value at the EC80 (0% inhibition) and basal value (100% inhibition).
(§3) FAAs are known to modulate diverse biological functions by interacting with human GPCRs. The products of the FAA screen are either known GPCR ligands or appear to structurally mimic these molecules (FIG. 30). The FAAs were analyzed for activity against a panel of known and orphan human GPCRs using the DiscoverX platform. The major compound from the four human gut metagenome-derived pathways (oleoyl dopamine, oleoyl tyramine, oleoyl aminovaleric acid, and lauroyl tryptamine) were chemically synthesized and screened at 10 uM on a panel of 168 known GPCRs covering 60 distinct receptors in both agonist and antagonist mode and 73 orphan GPCRs in agonist mode. […]

NPSR1b = target: T3, NPSR1b (Homo sapiens, UniProt Q6W5P4); assay: Cell-based β-arrestin reporter GPCR panel (DiscoverX) at 10 uM, NPSR1b; settings: compound at 10 uM
T3 sequence (Q6W5P4 1-377 isoform Q6W5P4-4): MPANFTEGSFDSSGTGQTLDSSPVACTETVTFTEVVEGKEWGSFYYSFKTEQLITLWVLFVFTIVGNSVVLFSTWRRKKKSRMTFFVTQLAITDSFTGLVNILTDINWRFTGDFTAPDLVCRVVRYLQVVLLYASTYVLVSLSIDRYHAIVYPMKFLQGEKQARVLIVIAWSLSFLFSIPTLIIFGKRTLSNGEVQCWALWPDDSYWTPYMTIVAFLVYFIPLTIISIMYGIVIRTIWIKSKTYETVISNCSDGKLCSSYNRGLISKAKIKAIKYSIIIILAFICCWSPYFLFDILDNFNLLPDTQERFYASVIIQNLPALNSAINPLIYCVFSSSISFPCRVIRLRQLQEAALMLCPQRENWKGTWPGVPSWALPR
Protocol: as §2, §3

PTGER4 = PTGER4 (Homo sapiens, UniProt P35408); assay: Cell-based β-arrestin reporter GPCR panel (DiscoverX) at 10 uM, PTGER4; settings: antagonist mode, compound at 10 uM
Sequence of PTGER4 (P35408 whole entry): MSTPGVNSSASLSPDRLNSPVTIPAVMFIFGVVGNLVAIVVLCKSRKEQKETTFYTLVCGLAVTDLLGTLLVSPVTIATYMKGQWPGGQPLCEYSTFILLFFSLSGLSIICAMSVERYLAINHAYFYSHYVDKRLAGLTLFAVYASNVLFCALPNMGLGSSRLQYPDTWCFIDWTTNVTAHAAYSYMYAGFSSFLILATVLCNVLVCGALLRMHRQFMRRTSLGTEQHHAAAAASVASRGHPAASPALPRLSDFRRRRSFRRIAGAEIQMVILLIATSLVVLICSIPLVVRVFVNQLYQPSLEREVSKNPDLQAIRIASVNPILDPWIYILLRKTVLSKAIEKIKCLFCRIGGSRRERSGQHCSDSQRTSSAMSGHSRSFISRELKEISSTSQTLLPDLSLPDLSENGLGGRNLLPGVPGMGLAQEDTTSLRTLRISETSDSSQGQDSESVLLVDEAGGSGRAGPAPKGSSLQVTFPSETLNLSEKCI
Protocol: as §2, §3

[4] = agonist mode, ten concentrations 100 to 0.0051 uM, read-out: EC50, stimulatory activity on GPR132

CCCCCCCCCCCCCC(O)CC(=O)NCC(=O)O (centres unmarked) [commendamine]
EC50 (GPR132 [1]): 11.8 µM

N[C@@H](CCS)C(=O)O [homocysteine]
C protein enzymatic activity, fold difference with vs without condensation enzyme [2]: 2 fold

CCCCCCCCCCCC(=O)O [lauric acid]
EC50 (GPR132 [3]; [4]): 25.2 µM
inhibition on EBI2 (concentration-response, in words) (EBI2/GPR183): Neither lauric acid nor tryptamine showed inhibition
IC50 (EBI2/GPR183): > 100 µM
IC50 (P2RY4): > 100 µM

CCCCCCCCCCCC(=O)NCCc1c[nH]c2ccccc12 [lauroyl tryptamine]
EC50 (GPR132 [3]; [4]): 1.45 µM
IC50 (EBI2/GPR183): 0.98 µM
IC50 (P2RY4): > 100 µM

CCCCCCCC/C=C\CCCCCCCC(=O)NCCc1ccc(O)cc1 [oleoyl tyramine]
activity on PRLHR in GPCR panel (PRLHR): shares activity
activity on NPSR1b in GPCR panel (NPSR1b): shares activity

NCCc1c[nH]c2ccccc12 [tryptamine]
EC50 (GPR132 [3]): > 100 µM
inhibition on EBI2 (concentration-response, in words) (EBI2/GPR183): Neither lauric acid nor tryptamine showed inhibition

oleoyl aminovaleric acid
inhibition of PTGER4 in GPCR panel (PTGER4): Inhibition was observed
